For data set [1], the target named is T1, E. coli DNA gyrase (Escherichia coli, UniProt P0AES4+P0AES6). The experiment in a line: E. coli DNA gyrase ATPase assays. The format is biochemical. As for the experimental part:
E. coli DNA gyrase ATPase assays were performed in 60 μl, of 1×gyrase ATPase buffer (10 mM Tris.HCl (pH 7.5), 0.2 mM EDTA, 1 mM magnesium chloride, 1 mM DTT, and 2% (w/v) glycerol) containing 50 nM E. coli DNA gyrase, 200 ng rx pAB1, 0.8 mM Phosphoenol pyruvate, 1.2 units of Pyruvate kinase, 1.7 units of lactate dehydrogenase, and 0.4 mM of NADH at 37° C. After the reaction mixtures are incubated on ice for 5 minutes, 2 mM of ATP is added to initiate the reaction. Absorbance at OD340 nm is monitored for up to 30 minutes at 37° C. in a spectrophotometer.

Another data set concerns the target Mtb DNA gyrase (Mycobacterium tuberculosis, UniProt P9WG45+P9WG47). As to the kind of experiment: Mtb DNA gyrase inhibition. The format is biochemical.
In data set [2] the target is T1, E. coli DNA gyrase. The experiment in a line: DNA gyrase mediated DNA cleavage assay. The format is biochemical. The note with it: plasmid pBR322. Here is the method:
250 ng of supercoiled pBR322 plasmid were incubated with 50 nM of E. coli DNA gyrase in reactions containing 35 mM Tris-HCl, 24 mM KCl, 4 mM MgCl2, 2 mM DTT, 0.1 mg/mL BSA, 6.5% glycerol, and 1.75 mM ATP, in presence of 200 μM of compounds, at 37° C. for 15 min. Then, 0.2% (w/v) of SDS and 0.1 mg/mL proteinase K were added, and samples were incubated at 37° C. for 1 h. […] Samples were examined by electrophoresis in 1% w/v agarose gel containing 0.5 μg/mL ethidium bromide and photographed under UV light.

Data set [3] addresses T1, E. coli DNA gyrase. As to the kind of experiment: SDFQ HTS assay of E. coli DNA gyrase (1536-well). The format is biochemical. The note with it: read-out: inhibition activities against E. coli DNA gyrase. As for the experimental part: SDFQ HITS primary assay using pAB1_FL905 was performed in 2 μL of (1×DNA gyrase buffer: 20 mM Tris-Acetate pH 7.9, 50 mM KAc, 10 mM MgCl2, 2 mM DTT, 1 mM ATP, 0.1 mg/ml. BSA). […] 3) Spun plate at 800 rpm for 30 seconds. […] SDFQ HTS secondary assay using pAB1_FL924 was performed in 2 μL of (1×DNA gyrase buffer: 20 mM Tris-Acetate pHI 7.9, 50 mM KAc, 10 mM MgCl2, 2 mM DTT, 1 mM ATP, 0.1 mg/mL BSA). […] 3) Spun plate at 800 rpm for 30 seconds.

In the next data set the test system is E. coli (ATCC 25922). The experiment in a line: Minimum inhibitory concentration, E. coli. The format is cell-based. To be noted: for MIC: Escherichia coli, ATCC25922, read-out: Minimum Inhibitory Concentration E. coli. As for the experimental part: (§1) Antibacterial minimum inhibitory concentrations (MICs) were obtained from three independent experiments using broth microdilution methods in 96-well plates according to Clinical and Laboratory Standards Institute guidelines. Cells were culture from singles colonies in MHIIB medium for 24 h at 37° C. in agitation (200 RPM). The cultures were then diluted using the same media to reach an OD600 of 0.1. Then, 50 μL of the diluted cultures were added to the plates holding 50 μL of serially diluted compounds in MHIIB. The plates were incubated at 37° C. for 20 h. The starting inoculum was fixated to 10^5 colony-forming units per ml.

The subject of the next data set is MRSA (ATCC BAA44). The experiment in a line: microbe, parasite or virus in culture. The format is cell-based, S. aureus. To be noted: for MIC: Staphylococcus aureus. As for the experimental part:
as §1

In another data set the test system is E. coli imp. As to the kind of experiment: microbe, parasite or virus in culture. The format is cell-based. The note with it: Escherichia coli, read-out: Minimum Inhibitory Concentration E. coli imp. As for the experimental part: as §1
The subject of another data set is S. aureus (ATCC 14775). As to the kind of experiment: Minimum inhibitory concentration, S. aureus. The format is cell-based. To be noted: for MIC: Staphylococcus aureus, ATCC14775. As for the experimental part:
as §1

In the next data set the test system is B. subtilis (ATCC 6633). As to the kind of experiment: Minimum inhibitory concentration, B. subtilis. The format is cell-based. The note with it: for MIC: Bacillus subtilis, ATCC6633, Tables 3a-3c. Here is the method:
as §1

Data set [4] has as its target T1, E. coli DNA gyrase. The experiment in a line: E. coli DNA gyrase inhibition (agarose gel-based and/or SDFQ-based, not specified per value). The format is biochemical.
Data set [5] has as its target human DNA topoisomerase 2α (Homo sapiens, UniProt P11388). As to the kind of experiment: Human DNA topoisomerase 2α-mediated DNA cleavage assays. The format is biochemical. The note with it: plasmid pBR322.
The test system of a further data set is Mtb. The experiment in a line: Mtb inhibition (antibacterial activity). The format is cell-based, Mycobacterium tuberculosis. More on the design: % Mtb inhibition: concentration or dose not given beside the values.
A further data set has as its system HepG2. The experiment in a line: Cytotoxicity in HepG2 cells. The format is cell-based.
Data set [6] concerns the target T1, E. coli DNA gyrase. The experiment in a line: Agarose gel-based DNA gyrase inhibition assays. The format is biochemical. The note with it: 200 μM of compounds. As for the experimental part: 100 ng of DNA gyrase was used to supercoil the rx pAB1 in the presence of different concentrations of a gyrase inhibitor. […] Samples were analyzed by electrophoresis in 1% w/v agarose gels followed by ethidium bromide staining and photographed under UV light.

The subject of the next data set is J774. The experiment in a line: Cytotoxicity in J774 cells. The format is cell-based.
Setting [7] is: read-out: Minimum Inhibitory Concentration S. aureus MRSA.
The mark [8] stands for this setting: Tables 3a-3c, read-out: Minimum Inhibitory Concentration S. aureus.
The mark [9] stands for this setting: Table 2 values, read-out: IC50 ( ≤15 μM) IC50.

For orientation: inhibition means the change of the read-out against control, counted positive when it falls. As usually defined, the IC50 is the concentration at which inhibition is half-maximal.

Values after ≈ are worked out from the molar mass of the structure shown. “Also recorded” adds a separate entry of the source. Where two headings read alike, the source gives them in different places. Where only a bound is given, the exact number is not on record here.

Mtb DNA gyrase, sequence (P9WG45 whole entry): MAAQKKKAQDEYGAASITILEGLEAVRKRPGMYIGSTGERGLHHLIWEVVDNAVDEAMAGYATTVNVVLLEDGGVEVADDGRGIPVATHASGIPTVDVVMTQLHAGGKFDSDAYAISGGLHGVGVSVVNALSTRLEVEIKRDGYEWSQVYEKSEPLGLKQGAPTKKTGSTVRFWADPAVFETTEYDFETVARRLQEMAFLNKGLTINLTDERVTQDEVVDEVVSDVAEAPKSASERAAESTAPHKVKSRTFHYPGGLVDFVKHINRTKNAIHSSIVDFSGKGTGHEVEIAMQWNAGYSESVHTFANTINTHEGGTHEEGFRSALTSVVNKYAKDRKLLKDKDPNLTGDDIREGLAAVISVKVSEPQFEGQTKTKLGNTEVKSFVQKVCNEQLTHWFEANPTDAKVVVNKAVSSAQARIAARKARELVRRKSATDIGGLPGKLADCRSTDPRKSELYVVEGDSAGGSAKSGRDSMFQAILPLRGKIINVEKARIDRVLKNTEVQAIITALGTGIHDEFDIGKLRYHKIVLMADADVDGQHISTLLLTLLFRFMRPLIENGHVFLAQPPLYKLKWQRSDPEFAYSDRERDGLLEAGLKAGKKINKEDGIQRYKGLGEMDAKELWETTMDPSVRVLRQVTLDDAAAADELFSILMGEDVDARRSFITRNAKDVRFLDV
Mtb DNA gyrase, sequence (P9WG47 whole entry): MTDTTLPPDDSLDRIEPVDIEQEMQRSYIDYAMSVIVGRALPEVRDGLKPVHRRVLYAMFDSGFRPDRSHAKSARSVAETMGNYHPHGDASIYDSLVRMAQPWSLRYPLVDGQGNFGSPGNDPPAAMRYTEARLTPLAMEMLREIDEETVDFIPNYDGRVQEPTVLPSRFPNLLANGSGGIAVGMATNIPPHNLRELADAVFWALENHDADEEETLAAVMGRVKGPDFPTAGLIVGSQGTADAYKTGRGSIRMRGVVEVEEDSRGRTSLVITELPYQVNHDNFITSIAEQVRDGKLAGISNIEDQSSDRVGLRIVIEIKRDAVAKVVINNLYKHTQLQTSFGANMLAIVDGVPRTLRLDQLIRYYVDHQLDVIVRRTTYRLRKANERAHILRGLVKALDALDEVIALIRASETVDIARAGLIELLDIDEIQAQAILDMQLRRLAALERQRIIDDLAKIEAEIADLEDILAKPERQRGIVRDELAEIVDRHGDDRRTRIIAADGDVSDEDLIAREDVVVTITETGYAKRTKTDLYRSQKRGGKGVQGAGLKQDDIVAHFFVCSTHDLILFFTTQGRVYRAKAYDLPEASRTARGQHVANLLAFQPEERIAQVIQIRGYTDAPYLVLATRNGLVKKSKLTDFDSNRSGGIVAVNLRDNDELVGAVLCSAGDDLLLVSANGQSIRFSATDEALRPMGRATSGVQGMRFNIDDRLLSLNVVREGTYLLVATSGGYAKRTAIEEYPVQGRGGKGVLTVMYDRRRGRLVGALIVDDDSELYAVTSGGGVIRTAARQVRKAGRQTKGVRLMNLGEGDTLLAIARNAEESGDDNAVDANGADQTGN
T1 sequence (P0AES4 whole entry, one chain of several): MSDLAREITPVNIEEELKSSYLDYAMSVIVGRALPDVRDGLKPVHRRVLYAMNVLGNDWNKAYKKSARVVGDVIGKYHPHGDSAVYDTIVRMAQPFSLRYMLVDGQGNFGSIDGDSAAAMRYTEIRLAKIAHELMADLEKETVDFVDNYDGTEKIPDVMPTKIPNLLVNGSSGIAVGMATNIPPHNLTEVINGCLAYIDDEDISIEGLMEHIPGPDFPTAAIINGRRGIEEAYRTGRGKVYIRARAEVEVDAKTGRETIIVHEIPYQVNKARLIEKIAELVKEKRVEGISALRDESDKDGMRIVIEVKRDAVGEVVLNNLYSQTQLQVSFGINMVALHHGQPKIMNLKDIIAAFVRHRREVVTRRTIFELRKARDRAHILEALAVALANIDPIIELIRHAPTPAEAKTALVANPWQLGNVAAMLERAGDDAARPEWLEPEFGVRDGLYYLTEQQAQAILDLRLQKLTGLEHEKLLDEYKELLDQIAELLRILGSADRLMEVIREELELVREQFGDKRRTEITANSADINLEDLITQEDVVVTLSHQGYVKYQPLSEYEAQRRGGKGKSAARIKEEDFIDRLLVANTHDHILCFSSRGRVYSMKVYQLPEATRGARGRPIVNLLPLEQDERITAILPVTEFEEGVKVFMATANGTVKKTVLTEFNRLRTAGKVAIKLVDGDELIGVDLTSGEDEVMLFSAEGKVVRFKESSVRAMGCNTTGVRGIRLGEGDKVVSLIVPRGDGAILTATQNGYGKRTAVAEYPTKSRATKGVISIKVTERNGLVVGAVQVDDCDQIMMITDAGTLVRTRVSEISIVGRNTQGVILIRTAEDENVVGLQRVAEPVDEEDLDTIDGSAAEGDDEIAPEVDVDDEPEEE
human DNA topoisomerase 2α, sequence (P11388 whole entry): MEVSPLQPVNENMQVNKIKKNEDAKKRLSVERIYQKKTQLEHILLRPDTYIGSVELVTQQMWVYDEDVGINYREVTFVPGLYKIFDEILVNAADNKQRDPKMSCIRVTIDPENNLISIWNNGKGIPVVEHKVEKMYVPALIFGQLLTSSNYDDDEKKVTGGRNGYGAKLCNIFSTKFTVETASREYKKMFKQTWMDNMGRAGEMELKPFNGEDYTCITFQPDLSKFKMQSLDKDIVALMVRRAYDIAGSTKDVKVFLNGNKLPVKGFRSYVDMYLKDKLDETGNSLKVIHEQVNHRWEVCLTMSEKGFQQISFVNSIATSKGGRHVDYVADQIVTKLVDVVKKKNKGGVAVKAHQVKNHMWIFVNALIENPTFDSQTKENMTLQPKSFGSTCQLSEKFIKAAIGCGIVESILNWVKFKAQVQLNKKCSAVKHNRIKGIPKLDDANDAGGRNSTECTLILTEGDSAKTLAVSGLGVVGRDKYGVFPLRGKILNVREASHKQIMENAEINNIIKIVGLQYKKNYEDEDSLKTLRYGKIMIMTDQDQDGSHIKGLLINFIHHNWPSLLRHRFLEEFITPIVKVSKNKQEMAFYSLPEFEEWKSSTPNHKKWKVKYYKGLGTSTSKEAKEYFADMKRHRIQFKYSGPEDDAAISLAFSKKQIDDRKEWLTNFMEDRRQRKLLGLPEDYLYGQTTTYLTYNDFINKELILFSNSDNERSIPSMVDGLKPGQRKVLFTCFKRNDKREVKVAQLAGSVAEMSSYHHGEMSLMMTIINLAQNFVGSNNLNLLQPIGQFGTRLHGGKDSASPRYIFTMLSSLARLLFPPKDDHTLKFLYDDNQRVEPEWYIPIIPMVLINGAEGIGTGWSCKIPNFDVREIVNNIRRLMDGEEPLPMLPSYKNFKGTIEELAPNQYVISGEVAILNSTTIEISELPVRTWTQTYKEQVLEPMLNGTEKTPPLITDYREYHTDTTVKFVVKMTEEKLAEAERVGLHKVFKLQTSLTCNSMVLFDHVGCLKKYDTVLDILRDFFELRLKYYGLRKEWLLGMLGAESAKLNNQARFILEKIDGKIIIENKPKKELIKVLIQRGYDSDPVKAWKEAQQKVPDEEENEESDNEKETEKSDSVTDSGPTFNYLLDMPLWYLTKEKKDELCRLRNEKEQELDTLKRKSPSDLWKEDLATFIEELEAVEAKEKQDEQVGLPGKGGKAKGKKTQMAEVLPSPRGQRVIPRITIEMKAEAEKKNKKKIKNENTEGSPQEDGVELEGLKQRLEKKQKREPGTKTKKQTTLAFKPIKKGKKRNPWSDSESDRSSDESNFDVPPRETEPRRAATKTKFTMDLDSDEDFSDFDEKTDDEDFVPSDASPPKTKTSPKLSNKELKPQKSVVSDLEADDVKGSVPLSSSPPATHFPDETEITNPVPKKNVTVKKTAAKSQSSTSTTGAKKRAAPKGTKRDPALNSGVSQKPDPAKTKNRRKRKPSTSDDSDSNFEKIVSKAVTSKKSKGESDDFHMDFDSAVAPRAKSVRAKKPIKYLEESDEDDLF

For the compound `CNC(=O)[C@H]1O[C@@H](n2cnc3c(NCc4cccc(I)c4)nc(Cl)nc32)[C@H](O)[C@@H]1O` [chloro-IB-MECA, reference compound], on E. coli DNA gyrase [1], the “inhibition of the ATPase activities of E. coli DNA gyrase” value was “inhibition of the ATPase activities” and the “mode of inhibition (ATP competitive)” value is “ATP competitive inhibitors”. Also, the “inhibition of Mtb DNA gyrase activities” value against Mtb DNA gyrase is on record as “did not inhibit”. For the same compound, at E. coli DNA gyrase [2], the “DNA gyrase-mediated double stranded DNA breaks / DNA nicking” value is reported as “did not DNA double stranded DNA 10 breaks”.
As for `Cc1ccc(C(=O)Nc2ccc(S(=O)(=O)O)c3cc(S(=O)(=O)O)cc(S(=O)(=O)O)c23)cc1NC(=O)c1cccc(NC(=O)Nc2cccc(C(=O)Nc3cc(C(=O)Nc4ccc(S(=O)(=O)O)c5cc(S(=O)(=O)O)cc(S(=O)(=O)O)c45)ccc3C)c2)c1` [suramin], the inhibition at 5 µM at E. coli DNA gyrase [3] is greater than 40%.
`CC(OC(=O)c1cc(O)c2ccccc2c1O)C(=O)Nc1ccc(C(N)=O)cc1` (centres unmarked) [Compound 40, 1-[(4-carbamoylphenyl)carbamoyl]ethyl 1,4-dihydroxynaphthalene-2-carboxylate]: the MIC in the data set on E. coli (ATCC 25922), in the data set with MRSA (ATCC BAA44) (setting [7]), in the data set with E. coli imp and with S. aureus (ATCC 14775) (setting [8]) was greater than 200 µM each time. The “anti Bacillus subtilis activities at” value in the data set on B. subtilis (ATCC 6633) amounted to 39 µg/mL. Also, on E. coli DNA gyrase [2], the “DNA gyrase-mediated double stranded DNA breaks / DNA nicking” value was “causes DNA gyrase-mediated double stranded DNA breaks and DNA nicking; also recorded: causes gyrase-mediated DNA double-stranded breaks and single-stranded nicks; also recorded: bacterial DNA gyrase poison”.
Consider `O=C1C=C(NCCc2cc(Br)c(O)c(Br)c2)C(=O)c2ncccc21` [Compound 232, 7-((2-(3,5-Dibromo-4-hydroxyphenyl)ethyl)amino)-5,8-quinolinedione], for which the “DNA gyrase-mediated double stranded DNA breaks / DNA nicking” value on E. coli DNA gyrase [2] is given as “cause DNA nicking”.
As for `CNC(=O)[C@H]1O[C@@H](n2cnc3c(NCc4cccc(I)c4)ncnc32)[C@H](O)[C@@H]1O` [IB-MECA], on E. coli DNA gyrase [1], the “inhibition of the ATPase activities of E. coli DNA gyrase” value is reported as “inhibition of the ATPase activities” and the “mode of inhibition (ATP competitive)” value is given as “ATP competitive inhibitors”. Also, the “inhibition of Mtb DNA gyrase activities” value against Mtb DNA gyrase is reported as “did not inhibit”.
Turning to `CCn1cc(C(=O)O)c(=O)c2cc(F)c(N3CCNC(C)C3)c(F)c21` (centres unmarked) [lomefloxacin], on E. coli DNA gyrase [3], the inhibition at 5 µM is greater than 40%.
In the case of `N=C(N)Nc1nc(-c2ccccc2)c2cc(Cl)ccc2n1` [Compound 154, N-(6-chloro-4-phenylquinazolin-2-yl)guanidine], the “antibacterial activities against E. coli” value with E. coli (ATCC 25922) (wildtype strain ATCC 25922) was “significant antibacterial activities”. The “growth inhibition of MRSA” value in the data set with MRSA (ATCC BAA44) was “significant antibacterial activities”. Besides, the MIC in the data set with E. coli imp was 50 to 100 µM (≈ 14.9 to 29.8 µg/mL). The IC50 at E. coli DNA gyrase [4] (setting [9]) was 3.12 µM. Also, in the data set on S. aureus (ATCC 14775), the “growth inhibition of S. aureus” value is “significant antibacterial activities”. Besides, the “human topoisomerase 2α-mediated DNA nicks and double-stranded breaks” value in data set [5] is “causes the human topoisomerase 2α-mediated DNA nicks and double-stranded breaks”. Besides, at E. coli DNA gyrase [2], the “DNA gyrase-mediated double stranded DNA breaks / DNA nicking” value is “causes the gyrase-mediated DNA double-stranded breaks and single-stranded nicks; also recorded: bacterial DNA gyrase poison”.
In the case of `Cc1cc(O)c2c(c1)C(=O)c1cc(O)cc(O)c1C2=O` [Compound 242, Emodin], the inhibition at 5 µM on E. coli DNA gyrase [3] was greater than 40%.
As for `Cc1c(CCC(=O)O)c(=O)oc2c(C)c3occ(-c4ccc(Br)cc4)c3cc12` [Compound 48], the MIC with E. coli (ATCC 25922), in the data set on E. coli imp and in the data set with B. subtilis (ATCC 6633) was greater than 200 µM in each case. The “mode of inhibition (ATP competitive)” value on E. coli DNA gyrase [1] was “ATP competitive inhibitor”. The “% Mtb inhibition” value in the data set with Mtb (Table 5) was determined as 38.6%. At E. coli DNA gyrase [4] (setting [9]), the IC50 was found to be 4.28 µM.
In the case of `N[C@@H]1[C@H]2CN(c3nc4c(cc3F)c(=O)c(C(=O)O)cn4-c3ccc(F)cc3F)C[C@@H]12` [trovafloxacin], at E. coli DNA gyrase [3], the inhibition at 5 µM was greater than 40%.
As for `O=C(O)CCNc1ccc(NCCC(=O)O)c2c1C(=O)c1ccccc1C2=O` [Compound 173, 3-({4-[(2-carboxyethyl)amino]-9,10-dioxo-9,10-dihydroanthracen-1-yl}amino)propanoic acid], the “DNA gyrase-mediated double stranded DNA breaks / DNA nicking” value on E. coli DNA gyrase [2] is on record as “cause DNA nicking”.
Turning to `Cc1c(CCC(=O)O)c(=O)oc2cc3occ(-c4ccc(Br)cc4)c3cc12` [Compound 46], the MIC in the data set on E. coli (ATCC 25922) was greater than 200 µM; in the data set with MRSA (ATCC BAA44) (read-out: MIC (μM) MRSA), greater than 200 µM; with MRSA (ATCC BAA44) (setting [7]), greater than 200 µM; with E. coli imp, 6.25 µM (≈ 2.67 µg/mL); in the data set on S. aureus (ATCC 14775) (Table 5, read-out: MIC (μM) SA), greater than 200 µM; in the data set on S. aureus (ATCC 14775) (setting [8]), greater than 200 µM. This compound had an MIC in the data set on B. subtilis (ATCC 6633) of 6.25 µM (≈ 2.67 µg/mL). For the same compound, the cytotoxicity result in the data set with HepG2 (HepG2, 200 μM) was “no cytotoxicity evident”; with J774 (J774, 200 μM) it was “no cytotoxicity evident”. Further, the IC50 in the data set on HepG2 (Homo sapiens, HepG2, highest concentration 200 μM) is greater than 200 µM; against E. coli DNA gyrase [4], 11.4 µM; on E. coli DNA gyrase [4] (setting [9]), 11.2 µM; against Mtb DNA gyrase (Table 5), 75 µM; with J774 (Mus musculus, J774, highest concentration 200 μM) it was greater than 200 µM. Besides, the “activity against Mtb” value in the data set with Mtb is “most active for Mtb”. Moreover, the inhibition at 20 µM with Mtb (Mycobacterium tuberculosis, read-out: % inhibition (20 μM), 20 μM, Table 6) is 82.3%. Also, the “inhibition of E. coli DNA gyrase activities” value at E. coli DNA gyrase [4] was “potent bacterial DNA gyrase inhibitors”; against E. coli DNA gyrase [6], “completely inhibited”.

The values are drawn from patent US12558366B2, “Bacterial DNA gyrase inhibitors and methods of use thereof” (THE FLORIDA INTERNATIONAL UNIVERSITY BOARD OF TRUSTEES, priority 2021, dated 2026).
